How the values were obtained:
[1] = Water solubility; assay type: physicochemical
From the text: The 21-hydroxy group of dexamethasone is not required for anti-inflammatory activity, and therefore is an ideal choice for conjugation to a polycation (FIG. 1A) (Schimmer et al., 1996, in The Pharmacological Basis of Therapeutics, 1459-1485, eds. Hardman and Limbird, McGraw-Hill, New York). […] Traut's reagent is selectively ring-opened by the primary amines (Hermanson, 1996, Bioconjugate Techniques, Academic Press) on spermine, forming a hydrolytically sensitive amidimide bond (Hermanson, 1996, Bioconjugate Techniques, Academic Press) between spermine and iminothiolane and a reactive thiolate anion that reacts with the α-keto mesylate on the 21 position of dexamethasone mesylate (Simmons et al., 1980, J. Org. Chem. […]), yielding an α-keto thioether linkage between the dexamethasone and iminothiolane. Dexamethasone mesylate (prepared or received from Steraloids, N.H.) or dexamethasone (Steraloids, N.H.), 2-iminothiolane (Traut's reagent) (Pierce), spermine (Sigma), and ethanol or DMSO (Aldrich) were used as received. […] For DA, FIG. 1B: Calc: C, 63.26; H, 7.35; N, 2.84. Found: C, 63.44; H, 7.27; N, 2.83.

[2] = tested on: GFP-GR; test: GFP-GR translocation study in BAECs; assay type: cell-based; details: 0.01-1 μM, 60-minute treatment
Procedure: BAECs were seeded at 1×10^5/ml in 24 well plates and allowed to spread overnight. Cells were transfected with GFP-GR chimeric protein by adding 450 ng of DNA complexed with 2 ul of lipofectamine in a 200 ul volume of Optimem media growth to each well of a 24 well plate for ˜1.5 hour. The DNA-lipofectamine complex was then removed and cells placed in DMEM supplemented with 0.5% calf serum. This reduced level of calf serum was used to prevent non-specific translocation of GFP-GR receptor in response to hormones in the serum. […] Analysis of GFP-GR translocation was conducted by counting the number of cells in each field of view, which had GFP-GR nuclear localization compared to total number of cells. ˜40 cells were analyzed per condition.

[3] = tested on: Bovine aortic endothelial cells (BAEC); test: Lipofection of BAEC with EGFP plasmid; assay type: cell-based; details: unconjugated, alone
Procedure: Bovine aortic endothelial cells (BAEC, passage 4-13) were passaged at a 1:3 split to 24-well culture plates, and then grown to dense confluence before lipofection. Growth medium was Dulbecco's modified Eagle's medium (DMEM) containing 10% heat inactivated charcoal-filtered (to remove steroid hormones) fetal calf serum (Hyclone), 0.30 mg/ml glutamine, 150 U/ml penicillin, and 0.15 mg/ml streptomycin (Gibco). […] The plasmids pEGFP-N3 and pGRE-SEAP (Clontech) were used for expression of EGFP or secreted alkaline phosphatase under the regulation of CMV or GRE promoters, respectively. […]
For lipofection, a solution of DS/DOPE in 125 μl OptiMEM I (Gibco) was mixed with a solution of DNA in 125 μl OptiMEM I, incubated for 30 to 60 minutes, and then overlaid on BAEC cells for 2 hours, followed by PBS rinse and addition of growth media. Fluorescence was measured after 48 hours. […] EGFP expression of transfections was monitored in duplicate (FIG. 2A) or triplicate (FIG. 2B) with a fluorescent plate reader (Labsystems Fluoroskan Ascent; 485 nm/538 nm filter pair) with background subtraction using the autofluorescence of non-transfected BAEC. […] Supernatant was collected, and pooled with supernatant from PBS washed and pelleted cells (total volume 750 μl), and EGFP fluorescence was measured (Ex 485, Em 515; SLM fluorometer). […]

Compound	solubility [1]	nuclear localization (translocation) of GFP-GR [2]	gene transfer activity (EGFP expression) [3]
CC1C[C@H]2[C@@H]3CCC4=CC(=O)C=C[C@]4(C)[C@@]3(F)C(O)C[C@]2(C)[C@@]1(O)C(=O)CSCCCC(=N)NCCCNCCCCNCCCN (some centres unmarked) [DS, N-[3-({4-[(3-aminopropyl)amino]butyl}amino)propyl]-4-[(9-fluoro-11,17-dihydroxy-16-methyl-3,20-dioxopregna-1,4-dien-21-yl)sulfanyl]butanimidamide]	> 100 mg/mL	caused nuclear localization of GFP-GR	–
NCCCNCCCCNCCCN [Spermine, spermine]	–	–	no detectable gene transfer activity
CCCCCCCCNCCC[C@@H](C)[C@H]1CC[C@H]2[C@@H]3[C@H](OCCCN)C[C@@H]4C[C@H](OCCCN)CC[C@]4(C)[C@H]3C[C@H](OCCCN)[C@]12C [CSA-13]	–	not observed	–
LL-37: cathelicidin peptide LL37, naturally occurring antibacterial agent (LLGDFFRKSKEKIGKEFKRIVQRIKDFLRNLVPRTES; Antibacterial peptide LL-37; UniProt P49913 134-170, looked up)	–	not observed	–

Source: patent US9180132B2, “Antimicrobial cationic steroids and methods of use” (The Trustees of the University of Pennsylvania, priority 2010, dated 2015)
